Reference: patent publication US11787816B2, “Chlorin compound, and preparation and use thereof” (Southwest Jiaotong University, priority 2021, dated 2023)

What was measured:
[1] = background statement; cited from earlier work
[2] = Photosensitizer-mediated PDT, in vitro proliferation (MTT), huh-7; format: cell-based, human; conditions: human, huh-7 cells, no light, read-out: cell viability (%)
Protocol: (§1) Several kinds of tumor cells (human cervical cancer Hela cells, human hepatocellular carcinoma huh-7 cells and murine mammary carcinoma 4T1 cells) cultured in vitro from a variety of tissues were taken as cell models, so as to investigate the photodynamic effects mediated by different doses of CEFN, CEFO, Ce6 and HPPH on the three different tumor cells (n=3). The specific experimental procedures were carried out as follows.
(§2) Cells in the logarithmic growth phase were harvested and seeded in a 24-well plate. After growing to a confluence of 70-80%, the cells were randomly divided into a control group (free of drug and light irradiation), a drug group and a photodynamic group. The CEFN, CEFO, Ce6 and HPPH were added respectively in dark, and for each drug, four final concentrations 1, 2, 5, and 10 μg/mL were set with 3 replicates for each group. After the co-incubation, the groups were treated individually. Regarding the photodynamic group, the light irradiation was performed at a wavelength of 660 nm and three different light intensities, i.e., 2, 4 and 8 J/cm^2. After that, each group was digested, and were inoculated into a 96-well plate at 100 μL per well with 4 replicates for each treatment. 24 hours later, the 96-well plate was subjected to MTT assay as follows. Each well was added with 20 μL of MTT (3-4,5-dimethylthiazol-2,5-diphenyltetrazolium bromide) solution in the dark and incubated for 4 hours. The supernatant was discarded, and the residue was dissolved with 150 μL of dimethyl sulfoxide for 15 min. After that, the 96-well plate was measured by a microplate reader for the absorbance (OD value). The relative cell viability was calculated as follows: relative cell viability=OD value of experimental group/OD value of control group*100%.

[3] = tested on: human hepatocellular carcinoma huh-7 cells; assay: as above; format: cell-based
Protocol: as §1, §2

[4] = Photosensitizer-mediated PDT, in vitro proliferation (MTT), 4T1; format: cell-based, murine; conditions: mouse, 4T1 cells, no light, read-out: cell viability (%)
Protocol: as §1, §2
(§3) In this experiment, photodynamic effect mediated by the compounds (except CEFO and CEFN) in different Examples of this disclosure on the murine mammary carcinoma 4T1 cells was investigated. The experimental procedures are carried out as follows. Cells in the logarithmic growth phase were harvested and seeded in a 24-well plate. After growing to a confluence of 70-80%, the cells were randomly divided into multiple photodynamic groups and multiple no-light control groups. The compounds (as shown in Table 8a) with a final concentration of 10 μg/mL were added to each group respectively in dark with 3 replicates for each group, so as to co-incubate the cells with the drug. Regarding the multiple photodynamic groups, the light irradiation was performed at a wavelength of 660 nm and the light intensity of 8 J/cm^2. After that, each group was digested, and were inoculated into a 96-well plate at 100 μL per well with 4 replicates for light treatment and no light treatment. 24 hours later, the 96-well plate was measured by MTT assay as follows. Each well was added with 20 μL of MTT (3-4,5-dimethylthiazol-2,5-diphenyltetrazolium bromide) solution in the dark and incubated for 4 hours. The supernatant was discarded, and the residue was dissolved with 150 μL of dimethyl sulfoxide for 15 min. After that, the 96-well plate was measured by a microplate reader for the absorbance (OD value). The relative cell viability of the murine mammary carcinoma 4T1 cells was calculated as follows according to the measured absorbance (OD value) in each group: relative cell viability=OD value of experimental group/OD value of control group*100%.

[5] = tested on: murine mammary carcinoma 4T1 cells; assay: as above; format: cell-based
Protocol: as §1, §2, §3

[6] = tested on: murine mammary carcinoma 4T1 cells; assay: Antitumor activity as sonosensitizers (SDT) on tumor-bearing mice; format: in vivo
Protocol: (§4) The murine mammary carcinoma cells (4T1 line) were subjected to adherent culture. After growing to a confluence of 70%-80%, the cells in the culture flask were routinely digested, centrifuged and counted, and then resuspended with 0.85% normal saline to a density of 1×10^7 cells/mL. The cell suspension was injected into the left lateral middle axillary subcutaneous part of […] Bal b/c healthy mice (female, aged 6-8 weeks) at 0.1 mL/mouse. When the tumor diameter, which was observed every other day, reached 0.6-0.8 cm, the mice with well-growing tumors and no ulcers on the epidermis were selected for grouped treatment.
Mice with similar body weight and uniform tumor size are selected and randomly divided into 6 groups with 6 mice for each group. 48 h after inoculation, the mice were subjected to drug administration separately from the tail vein by group.
[…] 6 h after drug administration, each group of mice was anesthetized by intraperitoneal injection with 0.2 mL of 1% pentobarbital sodium. Then the mice were fixed to allow the tumor growth site exposed. The SDT group was treated using an ultrasonic therapeutic apparatus at an impulse waveform of 1.0 MHz and power of 3.0 W/cm^2 for 3 min. 7 days after SDT, the animals were sacrificed. The tumor was stripped and weighed, and the body weight was recorded.

[7] = Photosensitizer-mediated PDT, in vitro proliferation (MTT), Hela; format: cell-based, human; conditions: human, Hela cells, Hela, no light, read-out: cell viability (%)
Protocol: as §1, §2

[8] = tested on: human cervical cancer Hela cells; assay: as above; format: cell-based
Protocol: as §1, §2

[9] = tested on: murine mammary carcinoma 4T1 cells; assay: Antitumor activity as photosensitizers on tumor-bearing mice (one PDT treatment); format: in vivo; conditions: for Inhibitory rate (average ± SD, %) / Tumor weight (average ± SD, g): 660 nm, 75 Joule/cm^2 6 h after dosing, 7 days after PDT; for Body weight At the begining / Body weight At the end: one PDT treatment, mice, in g (unit assumed)
Protocol: as §4
(1) Mice with similar body weight and uniform tumor size are selected and randomly divided into 7 groups with 6 mice for each group. After inoculation for 48 h, the mice were subjected to drug administration separately from the tail vein by group.
6 h after the drug administration, the mice were fixed to expose the tumor growth site. Light irradiation was performed for 8 min, using PDT-660 photodynamic therapy equipment at a laser wavelength of 660 nm and a light dose of 75 Joule/cm^2. Then both of the mice growth and tumor growth are observed continuously. 7 days after photodynamic therapy, the animals were sacrificed. The tumor was stripped and weighed, and the body weight was recorded.

[10] = tested on: murine mammary carcinoma 4T1 cells; assay: Antitumor activity as photosensitizers on tumor-bearing mice (two PDT treatments); format: in vivo
Protocol: as §4
(2) Mice with similar body weight and uniform tumor size are selected and randomly divided into 4 groups with 6 mice for each group. After inoculation of 4T1 cells and the tumor volume grows to 50˜80 mm^3, the mice were subjected to a first drug administration from the tail vein by group.
6 h after the drug administration, the mice were fixed to expose the tumor growth site. As a first PDT treatment, light irradiation was performed for 8 min, using PDT-660 photodynamic therapy equipment at the laser wavelength of 660 nm and the light dose of 150 Joule/cm^2. One week later, the second PDT treatment (the dosage and lighting conditions were the same as those of the first PDT treatment) was performed. The mice were sacrificed 14 days after the treatment. The tumor was removed, weighed and recorded.

[11] = 5 mg/kg tail vein, SDT 1.0 MHz, 3.0 W/cm^2, 3 min, 6 h after dosing, 7 days after SDT
[12] = 5 mg/kg, SDT, mice, in g (unit assumed)
[13] = 0.25 mg/kg tail vein, two PDT treatments one week apart, 660 nm, 150 Joule/cm^2, 14 days after treatment
[14] = 0.25 mg/kg, two PDT treatments, mice, in g (unit assumed)

## 2-(1-n-hexyloxy)ethyl chlorin f sodium salt
[1]
  water solubility: water-soluble

## C=Cc1c(C)c2cc3nc(c(CC(=O)O)c4[nH]c(cc5nc(cc1[nH]2)C(C)=C5CC)c(C)c4C(=O)O)[C@@H](CCC(=O)O)[C@@H]3C [Ce6, reference compound]
[2]; 1 μg/mL
  viability at 24 h, 1 μg/mL: 96 ± 1%
[2]; 2 μg/mL
  viability at 24 h, 2 μg/mL: 94 ± 2%
[2]; 5 μg/mL
  viability at 24 h, 5 μg/mL: 90 ± 2%
[2]; 10 μg/mL
  viability at 24 h, 10 μg/mL: 87 ± 2%
[3]; Homo sapiens, light or radiation study, 1 μg/mL, 660 nm, 8 J/cm^2, read-out: cell viability (%)
  viability at 1 µg/mL: 42 ± 3%
[3]; Homo sapiens, light or radiation study, 2 μg/mL, 660 nm, 8 J/cm^2, read-out: cell viability (%)
  viability at 2 µg/mL: 37 ± 3%
[3]; Homo sapiens, light or radiation study, 5 μg/mL, 660 nm, 8 J/cm^2, read-out: cell viability (%)
  viability at 5 µg/mL: 37 ± 2%
[3]; Homo sapiens, light or radiation study, 10 μg/mL, 660 nm, 8 J/cm^2, read-out: cell viability (%)
  viability at 10 µg/mL: 32 ± 3%
[4]; 1 μg/mL
  viability at 24 h, 1 μg/mL: 91 ± 2%
[4]; 2 μg/mL
  viability at 24 h, 2 μg/mL: 90 ± 3%
[4]; 5 μg/mL
  viability at 24 h, 5 μg/mL: 86 ± 4%
[4]; 10 μg/mL
  viability at 24 h, 10 μg/mL: 85 ± 4%
[5]; Mus musculus, light or radiation study, 1 μg/mL, 660 nm, 8 J/cm^2, read-out: cell viability (%)
  viability at 1 µg/mL: 88 ± 2%
[5]; Mus musculus, light or radiation study, 2 μg/mL, 660 nm, 8 J/cm^2, read-out: cell viability (%)
  viability at 2 µg/mL: 79 ± 3%
[5]; Mus musculus, light or radiation study, 5 μg/mL, 660 nm, 8 J/cm^2, read-out: cell viability (%)
  viability at 5 µg/mL: 54 ± 3%
[5]; Mus musculus, light or radiation study, 10 μg/mL, 660 nm, 8 J/cm^2, read-out: cell viability (%)
  viability at 10 µg/mL: 36 ± 1%
[6]; [11]
  Inhibitory rate (average ± SD, %): 53.3 ± 2.8%
  Tumor weight (average ± SD, g): 0.080 ± 0.005 g
[6]; [12]
  Body weight At the beginning: 20.5 ± 0.4
  Body weight At the end: 21.4 ± 0.5
[7]; 1 μg/mL
  viability at 24 h, 1 μg/mL: 92 ± 3%
[7]; 2 μg/mL
  viability at 24 h, 2 μg/mL: 89 ± 2%
[7]; 5 μg/mL
  viability at 24 h, 5 μg/mL: 86 ± 4%
[7]; 10 μg/mL
  viability at 24 h, 10 μg/mL: 83 ± 3%
[8]; Homo sapiens, light or radiation study, Hela, 1 μg/mL, 660 nm, 8 J/cm^2, read-out: cell viability (%)
  viability at 1 µg/mL: 86 ± 3%
[8]; Homo sapiens, light or radiation study, Hela, 2 μg/mL, 660 nm, 8 J/cm^2, read-out: cell viability (%)
  viability at 2 µg/mL: 76 ± 3%
[8]; Homo sapiens, light or radiation study, Hela, 5 μg/mL, 660 nm, 8 J/cm^2, read-out: cell viability (%)
  viability at 5 µg/mL: 38 ± 2%
[8]; Homo sapiens, light or radiation study, Hela, 10 μg/mL, 660 nm, 8 J/cm^2, read-out: cell viability (%)
  viability at 10 µg/mL: 21 ± 1%
[8]; summary statement for Hela, huh-7 and 4T1 cells, no light
  toxicity to the cells when the drug is used alone without photodynamic treatment: toxic to the cells

## CCCCCCOC(C)c1c(C)c2cc3nc(c4c5[nH]c(cc6nc(cc1[nH]2)C(C)=C6CC)c(C)c5C(=O)C4)[C@@H](CCC(=O)O)[C@@H]3C (stereo partly shown) [HPPH, 2-(1-hexyloxyethyl)-2-devinyl pyropheophorbide-a, reference compound]
[3]; 1 μg/mL, 660 nm, 8 J/cm^2
  cell viability (%): 68 ± 3%
[3]; 1 μg/mL, no light
  cell viability (%): 102 ± 4%
[3]; 2 μg/mL, 660 nm, 8 J/cm^2
  cell viability (%): 37 ± 3%
[3]; 2 μg/mL, no light
  cell viability (%): 98 ± 2%
[3]; 5 μg/mL, 660 nm, 8 J/cm^2
  cell viability (%): 26 ± 2%
[3]; 5 μg/mL, no light
  cell viability (%): 97 ± 1%
[3]; 10 μg/mL, 660 nm, 8 J/cm^2
  cell viability (%): 12 ± 2%
[3]; 10 μg/mL, no light
  cell viability (%): 101 ± 4%
[9]; 0.2 mg/kg tail vein
  Inhibitory rate (average ± SD, %): 72.2 ± 3.5%
  Tumor weight (average ± SD, g): 0.045 ± 0.006 g
[9]; 0.2 mg/kg
  Body weight At the begining: 20.5 ± 0.4
  Body weight At the end: 21.6 ± 0.4
[9]; 0.4 mg/kg tail vein
  Inhibitory rate (average ± SD, %): 89.5 ± 2.5%
  Tumor weight (average ± SD, g): 0.017 ± 0.004 g
[9]; 0.4 mg/kg
  Body weight At the begining: 20.7 ± 0.3
  Body weight At the end: 21.8 ± 0.2
[5]; 1 μg/mL, 660 nm, 8 J/cm^2
  cell viability (%): 83 ± 3%
[5]; 1 μg/mL, no light
  cell viability (%): 107 ± 4%
[5]; 2 μg/mL, 660 nm, 8 J/cm^2
  cell viability (%): 53 ± 2%
[5]; 2 μg/mL, no light
  cell viability (%): 103 ± 2%
[5]; 5 μg/mL, 660 nm, 8 J/cm^2
  cell viability (%): 33 ± 2%
[5]; 5 μg/mL, no light
  cell viability (%): 98 ± 1%
[5]; 10 μg/mL, 660 nm, 8 J/cm^2
  cell viability (%): 11 ± 2%
[5]; 10 μg/mL, no light
  cell viability (%): 99 ± 44%
[10]; [13]
  Inhibitory rate (average ± SD, %): 90.7 ± 2.1%
  Tumor weight (average ± SD, g): 0.088 ± 0.020 g
[10]; [14]
  Body weight At the beginning: 20.5 ± 0.4
  Body weight At the end: 22.5 ± 0.2
[8]; Hela, 1 μg/mL, 660 nm, 8 J/cm^2
  cell viability (%): 65 ± 4%
[8]; Hela, 1 μg/mL, no light
  cell viability (%): 100 ± 3%
[8]; Hela, 2 μg/mL, 660 nm, 8 J/cm^2
  cell viability (%): 46 ± 1%
[8]; Hela, 2 μg/mL, no light
  cell viability (%): 100 ± 2%
[8]; Hela, 5 μg/mL, 660 nm, 8 J/cm^2
  cell viability (%): 25 ± 2%
[8]; Hela, 5 μg/mL, no light
  cell viability (%): 102 ± 3%
[8]; Hela, 10 μg/mL, 660 nm, 8 J/cm^2
  cell viability (%): 12 ± 4%
[8]; Hela, 10 μg/mL, no light
  cell viability (%): 96 ± 4%
[1]
  water solubility: water-insoluble
